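1) Cells in 96-well plates. 2) Compound, 48 h, 5 concentrations. 3) Linear interpolation between surrounding doses. 4) Unreached endpoint = highest concentration. The concentration for 50% growth inhibition is given as GI50. TGI marks complete inhibition of growth.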
What was measured:
Assay in all cases: growth of human tumour cells (NCI), 48 h
[1] = tested on: A549 NSCLC
[2] = tested on: BT-549 breast
[3] = tested on: CCRF-CEM leukemia
[4] = tested on: DU-145 prostate
[5] = tested on: KM12 colon
[6] = tested on: MDA-MB-435
[7] = tested on: NCI/ADR-RES ovarian
[8] = tested on: SF-268 CNS
[9] = tested on: U251 CNS
[10] = tested on: EKVX NSCLC

Structure (SMILES): Cc1cc(NCCCNc2ccnc3cc(Cl)ccc23)nc(N2CCN(C)CC2)n1
- GI50 [1]: 3.66 µM
- TGI [1]: 16.5 µM
- GI50 [2]: 13.1 µM
- TGI [2]: 53.3 µM
- GI50 [3]: 2.59 µM
- TGI [3]: 14.7 µM
- GI50 [4]: 5.5 µM
- TGI [4]: 17.9 µM
- GI50 [5]: 3.97 µM
- TGI [5]: 17.1 µM
- GI50 [6]: 2.57 µM
- TGI [6]: 7.07 µM
- GI50 [7]: 17.5 µM
- TGI [7]: 61.7 µM
- GI50 [8]: 6.74 µM
- TGI [8]: 26.3 µM
- GI50 [9]: 3.91 µM
- TGI [9]: 17.2 µM

Structure (SMILES): O=c1ccc(N=Nc2ccc([N+](=O)[O-])cc2)ccc1O
- GI50 [1]: 6.8 µM
- TGI [1]: > 100 µM
- GI50 [2]: 8.74 µM
- TGI [2]: > 100 µM
- GI50 [3]: 3.68 µM
- TGI [3]: > 100 µM
- GI50 [4]: 19 µM
- TGI [4]: > 100 µM
- GI50 [10]: 4.29 µM
- TGI [10]: > 100 µM
- GI50 [5]: 5.54 µM
- TGI [5]: > 100 µM
- GI50 [6]: 9.14 µM
- TGI [6]: > 100 µM
- GI50 [8]: 4.18 µM
- TGI [8]: > 100 µM
- GI50 [9]: 4.46 µM
- TGI [9]: > 100 µM

Structure (SMILES): O=C(CCC(=O)Nc1cccc(Cl)c1)CC(=O)c1ccc(F)cc1
- TGI [1]: > 100 µM
- TGI [5]: > 100 µM
- TGI [8]: > 100 µM

Structure (SMILES): O=C1c2cccnc2C(=O)C2C3C=CC(C3)C12 (centres undefined)
- TGI [1]: 50.8 µM
- TGI [2]: 24 µM
- TGI [4]: 19.8 µM
- TGI [10]: 28.8 µM
- TGI [5]: 32 µM
- TGI [6]: 5.7 µM
- TGI [7]: > 100 µM
- TGI [8]: 24.3 µM
- TGI [9]: 16.7 µM

Structure (SMILES): O=c1c2ccccc2c(Br)c(Br)c2ccccc12
- GI50 [1]: 20.6 µM
- TGI [1]: 73 µM
- GI50 [2]: 19 µM
- TGI [2]: 34.4 µM
- GI50 [4]: 4.02 µM
- TGI [4]: 15.8 µM
- GI50 [10]: 14.2 µM
- TGI [10]: 64.3 µM
- GI50 [5]: 12.5 µM
- TGI [5]: 29.6 µM
- GI50 [6]: 4.56 µM
- TGI [6]: 21 µM
- GI50 [7]: 16.5 µM
- TGI [7]: 40.6 µM
- GI50 [8]: 8.89 µM
- TGI [8]: 25 µM
- GI50 [9]: 12.6 µM
- TGI [9]: 29 µM

Structure (SMILES): CC(=O)N1c2ccccc2C2=CC3C4C(=O)N(c5ccccc5)C(=O)C4C21C1C(=O)N(c2ccccc2)C(=O)C31 (centres undefined)
- TGI [1]: > 100 µM
- TGI [3]: > 100 µM
- TGI [5]: > 100 µM
- TGI [8]: > 100 µM
- TGI [9]: > 100 µM

Structure (SMILES): CC(=O)Oc1cc(C)c2c(c1OC(C)=O)CC1(O2)[C@@H](C)CCC2[C@@]3(C)CC[C@H](OC(C)=O)C(C)(C)C3CC[C@]21C (some centres undefined)
- TGI [1]: 33.2 µM
- TGI [10]: 11.4 µM
- TGI [5]: 18.2 µM
- TGI [8]: 12.8 µM
- TGI [9]: 14.4 µM

Structure (SMILES): COc1ccc(-n2cc(-c3cc(OC)c(OC)c(OC)c3)nc2SCc2ccccc2)cc1
- GI50 [1]: 79.6 µM
- TGI [1]: > 100 µM
- GI50 [3]: 3.63 µM
- TGI [3]: > 100 µM
- GI50 [4]: > 100 µM
- TGI [4]: > 100 µM
- GI50 [10]: 11.6 µM
- TGI [10]: > 100 µM
- GI50 [5]: 60 µM
- TGI [5]: > 100 µM
- GI50 [6]: > 100 µM
- TGI [6]: > 100 µM
- GI50 [7]: 26.8 µM
- TGI [7]: > 100 µM
- GI50 [8]: > 100 µM
- TGI [8]: > 100 µM
- GI50 [9]: 43.8 µM
- TGI [9]: > 100 µM

Structure (SMILES): O=S(=O)(N/N=C/c1ccc(Cl)c(Cl)c1)c1ccccc1
- TGI [1]: > 100 µM
- TGI [3]: > 100 µM
- TGI [10]: > 100 µM
- TGI [5]: > 100 µM
- TGI [8]: > 100 µM
- TGI [9]: > 100 µM

Structure (SMILES): Nc1nc(N)c(Cn2ccnc2)c(=O)[nH]1
- TGI [1]: > 100 µM
- TGI [2]: > 100 µM
- TGI [4]: > 100 µM
- TGI [10]: > 100 µM
- TGI [5]: > 100 µM
- TGI [6]: > 100 µM
- TGI [7]: > 100 µM
- TGI [8]: > 100 µM
- TGI [9]: > 100 µM

From PubChem BioAssay (NCI)
